Tests used:
[1] = molecular target: T1, tubulin (Sus scrofa, UniProt P02550+P02554); test: Evaluation of the inhibition of tubulin polymerization (turbidimetry); assay type: biochemical, pig; conditions: tubulin 10 μm (1 mg/ml), 37° C., turbidity at 350 nm; concentration that inhibits the rate of polymerization by 50%; read-out: Inhibition of tubulin polymerization IC 50 (μm)
T1 construct: Tubulin is purified from pig brain according to published methods; from tissue; host or cells: pig brain
Outline: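 Pig brain tubulin (>95% pure), 10 μm in MES pH 6.8/30% glycerol buffer plus 1 mM GTP and 6 mM MgCl2, with compound at 0.5–10 μm added before polymerization. Polymerization triggered by shift from 6° C to 37° C, followed by turbidity at 350 nm; IC50 is 50% inhibition of polymerization rate.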

[2] = tested on: HCT116 cells; test: Inhibition of proliferation of the human colon tumor line HCT116 ([14C]-thymidine incorporation); assay type: cell-based; conditions: Homo sapiens, HCT-116, 48 h, 48 hours at 37° C., read-out: Inhibition of HCT116 proliferation IC 50 (μm)
Outline: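 HCT116 cells (5000/well) in DMEM with 10% fetal calf serum incubated 48 h at 37° C with [14C]-thymidine (0.1 μCi/well) and compound up to 10 μm (DMSO ≤0.5%). Incorporated radioactivity counted; IC50 is concentration cutting radioactivity by 50% versus untreated control.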

[3] = tested on: HDMEC cells (Human Dermal Microvascular Endothelial Cells); test: Detachment of endothelial cells (test for determining the inhibition of vascularization); assay type: cell-based; conditions: two hours of treatment, calcein labeling, relative to untreated control
From the text: A test for determining the detachment of the endothelial cells was developed in order to select the products with regard to their “in vitro” activity. This test for determining the detachment of endothelial cells is characterized in that the endothelial cells, inoculated into plates whose bottom is covered with a binder preferably chosen from gelatin, fibronectin and vitronectin, after culturing, are supplemented with a medium containing the test compound, and the cells are then labeled with a fluorescent substance, the, cells which have become detached are removed by washing and the fluorescence of the remaining cells is counted in a fluorimeter.
This test consists in measuring the detachment of endothelial cells cultured on substrata based on a binder preferably chosen from fibronectin, vitronectin and gelatin. […] The fluorescence of the remaining cells is counted in a fluorimeter. […]
The evaluation of the detachment of the endothelial cells in vitro is determined in the following manner. […] The fluorescence of the cells that remain attached to the substratum of the well is counted using a fluorimeter, Spectrafluor Plus (Tecan excitation 485 nm, and emission 535 nm). The data are the mean of six different samples and are expressed as the percentage of the control (untreated cells). […]

T1 sequence (P02550 whole entry): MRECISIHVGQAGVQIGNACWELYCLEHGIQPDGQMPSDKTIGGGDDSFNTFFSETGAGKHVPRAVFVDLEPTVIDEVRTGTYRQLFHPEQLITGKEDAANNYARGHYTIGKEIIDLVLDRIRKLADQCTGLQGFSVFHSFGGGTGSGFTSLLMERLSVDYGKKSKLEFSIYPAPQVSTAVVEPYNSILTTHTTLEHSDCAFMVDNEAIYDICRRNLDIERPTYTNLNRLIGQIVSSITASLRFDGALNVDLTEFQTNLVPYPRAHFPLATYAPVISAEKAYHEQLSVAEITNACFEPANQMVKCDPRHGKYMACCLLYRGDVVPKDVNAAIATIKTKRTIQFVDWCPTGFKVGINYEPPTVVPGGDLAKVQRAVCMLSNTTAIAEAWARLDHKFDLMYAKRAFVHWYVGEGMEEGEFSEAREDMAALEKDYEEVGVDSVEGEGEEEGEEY
T1 sequence (P02554 whole entry): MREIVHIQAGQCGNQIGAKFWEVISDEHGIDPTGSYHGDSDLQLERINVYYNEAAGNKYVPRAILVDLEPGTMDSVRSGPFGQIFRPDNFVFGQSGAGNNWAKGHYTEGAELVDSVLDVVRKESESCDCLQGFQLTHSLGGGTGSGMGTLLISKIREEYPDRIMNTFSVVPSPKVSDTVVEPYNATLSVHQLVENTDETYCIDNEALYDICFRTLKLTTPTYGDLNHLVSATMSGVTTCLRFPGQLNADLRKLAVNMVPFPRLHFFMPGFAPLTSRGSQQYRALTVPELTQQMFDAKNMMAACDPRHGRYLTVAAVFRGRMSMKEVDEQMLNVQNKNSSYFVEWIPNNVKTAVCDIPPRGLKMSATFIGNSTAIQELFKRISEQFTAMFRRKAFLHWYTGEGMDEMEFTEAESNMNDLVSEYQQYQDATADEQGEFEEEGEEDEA

IC50 [1]	IC50 [2]	Compound	Percentage detachment of HDMEC at 1 μm [3]
0.6 µM	0.002 µM	Cc1cc(C(=O)N2CCN(c3cccc(Cl)c3)CC2)n(-c2ccccc2)n1 [Example 1, [4-(3-Chlorophenyl)piperazin-1-yl](5-methyl-2-phenyl-2H-pyrazol-3-yl)methanone]	22%
0.6 µM	0.16 µM	Cc1cc(C(=O)N2CCN(c3ccc(C)c(C)c3)CC2)n(-c2ccccc2)n1 [Example 2, [4-(3,4-Dimethylphenyl)piperazin-1-yl](5-methyl-2-phenyl-2H-pyrazol-3-yl)methanone]	16%

From patent publication US20050130989A1, “N-arylheteroaromatic products compositions containing them and use thereof” (Aventis Pharma S. A., priority 2003, published 2005)
